Tests used:
[1] = test system: lambsquarters; experiment: Test C pre-/postemergence herbicide test; format: in vivo, Chenopodium album; conditions: preemergence
Description: Seeds of plant species selected from bermudagrass (Cynodon dactylon (L.) Pers.), Surinam grass (Urochloa decumbens (Staph) R. D. Webster, previously named Brachiaria decumbens Stapf), cocklebur (Xanthium strumarium L.), corn (Zea mays L.), large crabgrass (Digitaria sanguinalis (L.) Scop.), woolly cupgrass (Eriochloa villosa (Thunb.) Kunth), giant foxtail (Setaria faberi Herrm.), goosegrass (Eleusine indica (L.) Gaertn.), johnsongrass (Sorghum halepense (L.) Pers.), kochia (Kochia scoparia (L.) Schrad.), lambsquarters (Chenopodium album L.), morningglory (Ipomoea coccinea L.), eastern black nightshade (Solanum ptycanthum Dunal), yellow nutsedge (Cyperus esculentus L.), pigweed (Amaranthus retroflexus L.), common ragweed (Ambrosia elatior L.), soybean (Glycine max (L.) Merr.), common (oilseed) sunflower (Helianthus annuus L.) and velvetleaf (Abutilon theophrasti Medik.) were planted and treated preemergence with test chemicals formulated in a non-phytotoxic solvent mixture which included a surfactant.
At the same time, plants selected from these crop and weed species and also winter barley (Hordeum vulgare L.), blackgrass (Alopecurus myosuroides Huds.), canarygrass (Phalaris minor Retz.), chickweed (Stellaria media (L.) Vill.), downy bromegrass (Bromus tectorum L.), green foxtail (Setaria viridis (L.) Beauv.), Italian ryegrass (Lolium multiflorum Lam.), wheat (Triticum aestivum L.), wild oat (Avenafatua L.) and windgrass (Apera spica-venti (L.) Beauv.) were treated with postemergence applications of some of the test chemicals formulated in the same manner. Plants ranged in height from 2 to 18 cm (1- to 4-leaf stage) for postemergence treatments. Plant species in the flooded paddy test consisted of rice (Oryza sativa), smallflower umbrella sedge (Cyperus difformis L.), ducksalad (Heteranthera limosa (Sw.) Willd.) and barnyardgrass (Echinochloa crus-galli (L.) Beauv.) grown to the 2-leaf stage for testing. Treated plants and controls were maintained in a greenhouse for 12 to 14 days, after which time all species were compared to controls and visually evaluated. Plant response ratings, summarized in Table C, are based on a scale of 0 to 100 where 0 is no effect and 100 is complete control. A dash (-) response means no test result.

[2] = test system: large crabgrass; experiment: Test C pre-/postemergence herbicide test; format: in vivo, Digitaria sanguinalis; conditions: preemergence
How it was run: (§1)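 Seeds were planted and sprayed preemergence with test chemicals in a non-phytotoxic solvent mixture containing surfactant; postemergence treatments went onto plants 2 to 18 cm tall (1- to 4-leaf stage). After 12 to 14 days in a greenhouse, injury was rated visually against untreated controls on a 0–100 scale.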

[3] = test system: ducksalad; experiment: Test B flooded paddy test; format: in vivo, Heteranthera limosa; conditions: 1000 g ai/ha, scale 0 to 100 (0 no effect, 100 complete control)
How it was run: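 Scale 0–100: zero equals no visible effect, 100 complete control, judged by eye relative to controls. Timing: 13 to 15 days in greenhouse post-treatment. Growth stage at spraying: two leaves (paddy) or one to four leaves, 2–18 cm (postemergence).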

[4] = test system: common ragweed; experiment: Test C pre-/postemergence herbicide test; format: in vivo, Ambrosia elatior; design: key to Plant response rating, Ragweed: 0 = no effect, 100 = complete control; conditions: preemergence
How it was run: as §1

[5] = test system: yellow nutsedge; experiment: Test C pre-/postemergence herbicide test; format: in vivo, Cyperus esculentus; conditions: preemergence
How it was run: as §1

[6] = test system: barnyardgrass; experiment: Test B pre-/postemergence herbicide test; format: in vivo, Echinochloa crus-galli
How it was run: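 Formulation: non-phytotoxic solvent mix with surfactant. Timing: preemergence on seed and postemergence on 2–18 cm plants, applied concurrently. Readout after 13–15 d greenhouse: visual 0–100 control rating against controls.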

[7] = test system: Surinam grass; experiment: Test C pre-/postemergence herbicide test; format: in vivo, Urochloa decumbens; conditions: preemergence
How it was run: as §1

[8] = 125 g ai/ha, scale 0 (no effect) to 100 (complete control), visual, 12 to 14 days
[9] = 500 g ai/ha, scale 0 to 100 (0 no effect, 100 complete control), visual, 12 to 14 days
[10] = 125 g ai/ha; 0 is no effect, 100 is complete control; preemergence
[11] = 125 g ai/ha; visual rating, scale 0 (no effect) to 100 (complete control); postemergence
[12] = 500 g ai/ha; visual rating, 0 = no effect, 100 = complete control; preemergence
[13] = postemergence, 500 g ai/ha; scale 0 to 100, 0 is no effect, 100 is complete control

Structure (SMILES)	Plant response rating, Lambsquarters [1, 8]	Plant response rating, Crabgrass, Large [2, 8]	Plant response rating, Nutsedge, Yellow [5, 8]	Plant response rating, Lambsquarters ([1]; 62 g ai/ha, scale 0 to 100)	Plant response rating, Lambsquarters ([1]; 250 g ai/ha, scale 0-100)	Plant response rating, Lambsquarters [1, 9]	Plant response rating, Crabgrass, Large ([2]; 250 g ai/ha, scale 0-100)	Plant response rating, Crabgrass, Large [2, 9]	Ducksalad plant response rating [3]	Plant response rating, Ragweed ([4]; 62 g ai/ha, scale 0 to 100)	Plant response rating, Ragweed ([4]; 250 g ai/ha, scale 0-100)	Plant response rating, Ragweed [4, 9]	Plant response rating, Nutsedge, Yellow ([5]; 62 g ai/ha, scale 0 to 100)	Plant response rating, Nutsedge, Yellow ([5]; 250 g ai/ha, scale 0-100)	Plant response rating, Nutsedge, Yellow [5, 9]	Barnyardgrass plant response rating [6, 11]	Barnyardgrass plant response rating [6, 13]	Plant response rating, Surinam Grass ([7]; 62 g ai/ha, scale 0 to 100)	Plant response rating, Surinam Grass ([7]; 250 g ai/ha, scale 0-100)	Plant response rating, Surinam Grass [7, 9]	also measured
CCC(=NO)c1cccc(NC(=O)c2cc(C(C)(C)C)nn2C)c1 [Compound 118]	60	100	0																		Plant response rating, Lambsquarters ([1]; 31 g ai/ha, scale 0 to 100): 50; Plant response rating (0 = no effect, 100 = complete control), Lambsquarters ([1]; 62 g ai/ha): 50; Plant response rating, Crabgrass, Large ([2]; 31 g ai/ha, scale 0 to 100): 10; Plant response rating (0 = no effect, 100 = complete control), Crabgrass, Large ([2]; 62 g ai/ha): 70; Ducksalad plant response rating ([3]; visual rating, 13 to 15 days): 80; Plant response rating, Ragweed ([4]; 31 g ai/ha, scale 0 to 100): 0; Plant response rating (0 = no effect, 100 = complete control), Ragweed ([4]; 62 g ai/ha): 0; Plant response rating, Ragweed [4, 8]: 10; Plant response rating, Nutsedge, Yellow ([5]; 16 g ai/ha, scale 0 to 100, last section of Table C): 0; Plant response rating, Nutsedge, Yellow ([5]; 31 g ai/ha, scale 0 to 100): 0; Plant response rating (0 = no effect, 100 = complete control), Nutsedge, Yellow ([5]; 62 g ai/ha): 0; Plant response rating, Barnyardgrass ([6]; 500 g ai/ha; visual rating 0-100, 0 no effect, 100 complete control; preemergence): 90; Plant response rating, Barnyardgrass ([6]; Postemergence, 500 g ai/ha; visual rating after 13 to 15 days, scale 0 (no effect) to 100 (complete control)): 30; Barnyardgrass plant response rating ([6]; postemergence, 125 g ai/ha; visual rating, scale 0 (no effect) to 100 (complete control)): 10; Plant response rating, Barnyardgrass ([6]; preemergence, 125 g ai/ha; 0 to 100 scale, 0 is no effect, 100 is complete control): 10; Plant response rating, Surinam Grass ([7]; 31 g ai/ha, scale 0 to 100): 20; Plant response rating, Surinam Grass [7, 8]: 20
CCC1=NN(C(C)(C)C)CC1C(=O)Nc1cc(C(=O)N2CC=CC2)ccc1F (racemic) [Compound 340]				70	100	100	100	100	90	0	20	75	0	0	60	10	20	0	65	85	Plant response rating (0 = no effect, 100 = complete control), Lambsquarters ([1]; 125 g ai/ha): 80; Plant response rating, Crabgrass, Large ([2]; 62 g ai/ha, scale 0 to 100): 50; Plant response rating (0 = no effect, 100 = complete control), Crabgrass, Large ([2]; 125 g ai/ha): 70; Plant response rating (0 = no effect, 100 = complete control), Ragweed ([4]; 125 g ai/ha): 0; Plant response rating (0 = no effect, 100 = complete control), Nutsedge, Yellow ([5]; 125 g ai/ha): 0; Plant response rating (0 to 100 scale), Barnyardgrass [6, 10]: 80; Plant response rating, Barnyardgrass [6, 12]: 100; Plant response rating (0 = no effect, 100 = complete control), Surinam Grass ([7]; 125 g ai/ha): 60
CCN1N=C(C(C)(C)C)CC1C(=O)Nc1cc(C(=O)N2CCCC2)ccc1F (racemic) [Compound 309]	100	80	30	100	100	100	100	100	90	50	70	100	5	45	60	20	40	50	90	100	Barnyardgrass plant response rating (0 to 100 scale) ([6]; 125 g ai/ha; 0 = no effect, 100 = complete control; preemergence): 80; Plant response rating, Barnyardgrass [6, 12]: 100
CCc1nn(C(C)(C)CC)nc1C(=O)Nc1cccc(C(=O)N(C)C)c1 [Compound 372]				100	100	100	95	95	90	70	100	100	5	40	85	10	60	50	85	100	Plant response rating (0 = no effect, 100 = complete control), Lambsquarters ([1]; 125 g ai/ha): 100; Plant response rating, Crabgrass, Large ([2]; 62 g ai/ha, scale 0 to 100): 70; Plant response rating (0 = no effect, 100 = complete control), Crabgrass, Large ([2]; 125 g ai/ha): 85; Plant response rating (0 = no effect, 100 = complete control), Ragweed ([4]; 125 g ai/ha): 90; Plant response rating (0 = no effect, 100 = complete control), Nutsedge, Yellow ([5]; 125 g ai/ha): 30; Plant response rating (0 to 100 scale), Barnyardgrass [6, 10]: 80; Plant response rating (0 = no effect, 100 = complete control), Surinam Grass ([7]; 125 g ai/ha): 85

Source: patent US20060069132A1, “Azolecarboxamide herbicides” (priority 2004, published 2006)
